Measurements published in ChEMBL document CHEMBL3352394, “Acinetobacter baumannii OxPhos inhibitors as selective anti-infective agents” (Bioorg Med Chem Lett, 2015).
≈ marks a conversion by molar mass, not a printed value. Calls of active or inactive are those of the source. The rule behind the calls is not given here.

Columns and labels:
[1] = Cytotoxicity against mouse NIH/3T3 cells after 1 hr by MTS reduction assay in absence of serum; type: cell-based; conditions: NIH3T3, 1 h
HepG2 = assay: Cytotoxicity against human HepG2 cells after 1 hr by MTS reduction assay in absence of serum; type: cell-based; conditions: HepG2, 1 h
[2] = Inhibition of Electron transport protein complex-dependent oxidative phosphorylation system-mediated ATP synthesis in Acinetobacter baumannii membranes; type: cell membranes
[3] = Inhibition of Electron transport protein complex-dependent oxidative phosphorylation system-mediated ATP synthesis in bovine heart submitochondrial particle; set-up: species or system Bos taurus
[4] = Selectivity ratio of IC50 for oxidative phosphorylation system-mediated ATP synthesis in bovine heart submitochondrial particle to IC50 for oxidative phosphorylation system-mediated ATP synthesis in Acinetobacter baumannii membranes; type: cell membranes
Acinetobacter baumannii [5] = assay: Antimicrobial activity against Acinetobacter baumannii; type: functional
[6] = Half life in mouse liver microsomes; type: ADME
Acinetobacter baumannii [7] = assay: Bactericidal activity against Acinetobacter baumannii at 8 times IC50 by time-kill assay; type: functional, organism-based
Acinetobacter baumannii [8] = assay: Inhibition of NDH1-mediated O2 consumption in Acinetobacter baumannii membranes at 50 uM in presence of NADH; type: cell membranes
Acinetobacter baumannii [9] = assay: Inhibition of NDH1-mediated O2 consumption in Acinetobacter baumannii membranes at 50 uM in presence of NADH and ascorbate/TMPD; type: cell membranes
Acinetobacter baumannii [10] = assay: Inhibition of NDH1-mediated O2 consumption in Acinetobacter baumannii membranes at 50 to 100 uM in presence of succinate; type: cell membranes
Acinetobacter baumannii [11] = assay: Antimicrobial activity against Acinetobacter baumannii ATCC 17978; type: functional
Acinetobacter baumannii [12] = assay: Antimicrobial activity against Acinetobacter baumannii BAA-1606; type: functional
Staphylococcus aureus [13] = assay: Antimicrobial activity against Staphylococcus aureus ATCC 25923; type: functional
Staphylococcus aureus [14] = assay: Antimicrobial activity against methicillin-resistant Staphylococcus aureus USA 300; type: functional
Escherichia coli [15] = assay: Antimicrobial activity against Escherichia coli ATCC 25922; type: functional
Escherichia coli [16] = assay: Antimicrobial activity against Escherichia coli ATCC 25922 in presence of 40% serum; type: functional
Klebsiella pneumoniae [17] = assay: Antimicrobial activity against Klebsiella pneumoniae ATCC 4352; type: functional
Klebsiella pneumoniae [18] = assay: Antimicrobial activity against Klebsiella pneumoniae ATCC 13883; type: functional
Klebsiella pneumoniae [19] = assay: Antimicrobial activity against Klebsiella pneumoniae ATCC 13883 in presence of 40% serum; type: functional
Pseudomonas aeruginosa = assay: Antimicrobial activity against Pseudomonas aeruginosa ATCC 10145; type: functional
[20] = Half life in human liver microsomes; type: ADME

| Compound | IC50 [2] [µM] | IC50 [3] [µM] | Ratio IC50 [4] | MIC (Acinetobacter baumannii [5]) [µM] | IC50 [1] [µM] | IC50 (HepG2) [µM] | further results |
| --- | --- | --- | --- | --- | --- | --- | --- |
| N=c1n(CCCOc2ccc(Cl)cc2Cl)c2ccccc2n1Cc1ccc(C(F)(F)F)nc1.O=C(O)C(F)(F)F | 0.9 | 0.9 | 1 | 50 | 22 | 35 | half-life [6]: > 90 min |
| N=c1n(CCCOc2ccc(Cl)cc2Cl)c2ccccc2n1CC(=O)N1CCN(c2ccccc2)CC1.O=C(O)C(F)(F)F | 1 | 0.8 | 0.8 | > 100 | 400 | 1300 | half-life [6]: 25.2 min |
| CCN(CC)CCn1c(N)nc2ccccc21 | 40 | 100 | 2.5 | > 100 |  |  |  |
| OC(COc1ccc(Cl)cc1Cl)Cn1c(NCCCN2CCOCC2)nc2ccccc21 (configuration not stated) | 7.8 | 9.6 | 1.2 | > 100 |  |  |  |
| N=c1n(CCCOc2ccc(Cl)cc2Cl)c2ccccc2n1CCc1ccccn1 | 3.2 | 6.6 | 2.1 | 100 (≈ 44.1 µg/mL) | 36 | 60 |  |
| N=c1n(CCCOc2ccc(Cl)cc2Cl)c2ccccc2n1CCn1ccnc1 | 18.3 | 49.7 | 2.7 | > 100 | 61 | 137 |  |
| COLISTIN |  |  |  |  |  |  | MIC90 (Acinetobacter baumannii [5]): 2 µg/mL |
| CCN(CC)CCn1c(=N)n(CC(O)COc2ccc(Cl)cc2Cl)c2ccccc21 (configuration not stated) | 1.9 | 5.6 |  | 25 (≈ 11.3 µg/mL) |  |  | Activity (Acinetobacter baumannii [7]): Active; inhibition (Acinetobacter baumannii [8]): Active |
| OC(CNCc1nc2ccccc2[nH]1)COc1ccc(Cl)cc1Cl (configuration not stated) | 41 | 106 | 2.6 | > 100 |  |  |  |
| Cc1noc(C)c1Cn1c(=N)n(CCCOc2ccc(Cl)cc2Cl)c2ccccc21 | 1.9 | 6.1 | 3.2 | 100 (≈ 44.5 µg/mL) | 94 | 168 |  |
| CCN(CC)CCCNc1nc2ccccc2n1CCCOc1ccc(Cl)cc1Cl | 8 | 20 | 2.5 | 50 (≈ 22.5 µg/mL) |  |  |  |
| CCN(CC)C(=O)Cn1c(=N)n(CCCOc2ccc(Cl)cc2Cl)c2ccccc21 | 6 | 11.4 | 1.9 | > 100 | 68 | 143 |  |
| CCN(CC)CCn1c(=N)n(CCOc2ccc(Cl)cc2Cl)c2ccccc21 | 6.9 | 18.3 | 2.7 | 100 (≈ 42.1 µg/mL) |  |  | Activity (Acinetobacter baumannii [7]): Active |
| CC(C)(C)OC(=O)N1CCC(CCn2c(=N)n(CCCOc3ccc(Cl)cc3Cl)c3ccccc32)CC1 | 1.7 | 1 | 0.6 | 50 (≈ 27.4 µg/mL) | 25 | 42 |  |
| Br.CCN(CC)CCn1c(=N)n(CCCOc2ccc(Cl)cc2Cl)c2ccccc21 | 0.61 | 2.9 | 3 | 13 | 20 | 83 | inhibition (Acinetobacter baumannii [9]): inactive; inhibition (Acinetobacter baumannii [10]): inactive; MIC (Acinetobacter baumannii [11]): 12.5 µg/mL; MIC (Acinetobacter baumannii [12]): 12.5 µg/mL; MIC (Staphylococcus aureus [13]): 11 µg/mL; MIC (Staphylococcus aureus [14]): 5 µg/mL; MIC (Escherichia coli [15]): 11 µg/mL; MIC (Escherichia coli [16]): > 22 µg/mL; MIC (Klebsiella pneumoniae [17]): 5 µg/mL; MIC (Klebsiella pneumoniae [18]): 22 µg/mL; MIC (Klebsiella pneumoniae [19]): > 22 µg/mL; MIC (Pseudomonas aeruginosa): > 22 µg/mL; half-life [6]: 13 min; half-life [20]: 9.2 min; Activity (Acinetobacter baumannii [7]): Active; inhibition (Acinetobacter baumannii [8]): Active |
| N=c1n(CCCOc2ccc(Cl)cc2Cl)c2ccccc2n1CCCN1CCCCC1 | 3.6 | 22.4 | 6.2 | 50 (≈ 23.1 µg/mL) | 37 | 83 |  |

More lines, in order of falling IC50 [2], values ahead:

| IC50 [2] [µM] | IC50 [3] [µM] | Ratio IC50 [4] | MIC (Acinetobacter baumannii [5]) [µM] | Compound | IC50 [1] [µM] | IC50 (HepG2) [µM] | further results |
| --- | --- | --- | --- | --- | --- | --- | --- |
| 12 | 21 | 1.8 | > 100 | CCN(CC)CCn1c(=O)n(CC(O)COc2ccc(Cl)cc2Cl)c2ccccc21 (configuration not stated) |  |  |  |
| 10 | 13 | 1.3 | > 100 | CCN(CC)CCCNc1nc2ccccc2n1CC(O)COc1ccc(Cl)cc1Cl (configuration not stated) |  |  |  |
| 9.2 | 25.5 | 2.8 | > 100 | N=c1n(CCCOc2ccc(Cl)cc2Cl)c2ccccc2n1CCN1CCOCC1 | 76 | 215 |  |
| 6.4 | 8.8 | 1.4 | 50 (≈ 18.2 µg/mL) | CCn1c(=N)n(CCCOc2ccc(Cl)cc2Cl)c2ccccc21 | 24 | 96 |  |
| 5.6 | 6 | 1.1 | > 100 | CCOCCOCCn1c(=N)n(CCCOc2ccc(Cl)cc2Cl)c2ccccc21 | 62 | 151 |  |
| 5 | 9.4 | 1.9 | 25 (≈ 10.5 µg/mL) | CCN(CC)CCn1c(=N)n(CCCc2ccc(Cl)cc2Cl)c2ccccc21 |  |  | Activity (Acinetobacter baumannii [7]): Active |
| 5 | 47 | 9.4 | > 100 | CCN(CC)CCNc1nc2ccccc2n1CC(O)COc1ccc(Cl)cc1Cl (configuration not stated) |  |  |  |
| 3.8 | 1.8 | 0.5 | 50 (≈ 19.6 µg/mL) | CCCCn1c(=N)n(CCCOc2ccc(Cl)cc2Cl)c2ccccc21 | 28 | 72 |  |
| 3.6 | 3.1 | 0.9 | > 100 | N=c1n(CCCOc2ccc(Cl)cc2Cl)c2ccccc2n1CCN1CCCC1=O | 99 | 63 |  |
| 2.8 | 2.9 | 1 | 25 (≈ 11.6 µg/mL) | CCCN(CCC)CCn1c(=N)n(CCCOc2ccc(Cl)cc2Cl)c2ccccc21 | 28 | 49 |  |
| 2.1 | 4.9 | 2.3 | 13 (≈ 5.63 µg/mL) | N=c1n(CCCOc2ccc(Cl)cc2Cl)c2ccccc2n1CCN1CCCC1 | 12 | 67 |  |
| 2.1 | 2.2 | 1.1 | 25 | N=c1n(CCCOc2ccc(Cl)cc2Cl)c2ccccc2n1CCCc1ccccc1.O=C(O)C(F)(F)F | 36 | 65 | half-life [6]: 48.2 min |
| 1.7 | 2.5 | 1.5 | 13 (≈ 6.02 µg/mL) | CC(C)N(CCn1c(=N)n(CCCOc2ccc(Cl)cc2Cl)c2ccccc21)C(C)C | 19 | 39 |  |
| 0.9 | 0.8 | 0.9 | 25 (≈ 8.41 µg/mL) | Nc1nc2ccccc2n1CCCOc1ccc(Cl)cc1Cl |  |  | MIC (Acinetobacter baumannii [11]): 6.25 µg/mL (≈ 18.6 µM); MIC (Acinetobacter baumannii [12]): 6.25 µg/mL (≈ 18.6 µM) |
